In patent US10028971B2, “Compositions and methods for treating psychiatric disorders” (GOSFORTH CENTRE (HOLDINGS) PTY LTD., priority 2008, dated 2018):
Where two headings read alike, the source gives them in different places.

Tests used:
[1] = tested on: individuals with sleep disorders; experiment: Sleep disorders, clinical observation; assay type: in vivo, human; details: person, chronic insomnia, restless legs; sodium valproate added to dexamphetamine 25 mg
[2] = tested on: adherence to medication regime; details: person
Description: As a result, taking medication becomes an automatic activity which doesn't require a high level of attention and motivation.
The individual experiences an improvement in the ability to efficiently and effectively attend to a task in hand, without also needing to expend extra cognitive effort to remember which medication to take and at what times.

CCCC(CCC)C(=O)O.[Na] [sodium valproate, sodium di-n-propylacetic acid]
clinical outcome on sleep (case) [1]: less effort was required to initiate sleep
clinical outcome (case) ([2]; complex regime, no ADHD, ASD or dementia, Sodium valproate 100 mg added): enhanced ability to track their thoughts with less effort
clinical outcome (case) ([2]; sodium valproate reduced to 100 mg with dexamphetamine 40 mg): improved efficacy, cognition, organisation and compliance with medication
